Results on 78 compounds are retold here after PMC12040169 (PLOS Biology, 2025).

Each structure is given as a SMILES string.

The nature of one data set: in vitro. Particulars: human, hela cells.
The viability is a read-out of living cells in per cent, often relative to untreated cells. Consider `CC1CN(C(=O)COc2ccccc2OC(=O)N(C)C)CC(C)O1` (stereo not drawn) [CBK057627], for which the viability at 28.5 h, 10 µM stood at 121%.

Still in this data set, the particulars now being: human, hela cells, % viability.
Consider `CC(=O)Nc1ccc(NC(=O)CC2(CC(=O)O)CCCC2)cc1` [CBK296931], for which the viability at 28.5 h, 10 µM is 97.3%. On the same count and under the same terms, under `OCCN1CC2(CCN(Cc3cccc(Oc4ccccc4)c3)CC2)c2ccccc21` [CBK131528] stands 88.7%; under `Nc1n[nH]c(SCC(=O)N2CCN(C(c3ccccc3)c3ccccc3)CC2)n1` [CBK267893], 86.5%; under `Cc1cc2nc(-c3cc(NC(=O)c4cccc([N+](=O)[O-])c4)ccc3O)oc2cc1C` [CBK262855], 103%. On the same count and under the same terms, the value for `CC(NS(=O)(=O)c1ccc([N+](=O)[O-])cc1)C(=O)O` (stereo not drawn) [CBK261834] was 90.5%; that for `COc1cc(C2c3c(-c4cc(C)c(C)cc4O)n[nH]c3C(=O)N2CCO)cc(Br)c1O` (stereo not drawn) [CBK269009] was 112%. On the same count and under the same terms, the value for `O=C(O)C1CCCCC1C(=O)N1CCc2ccccc2C1` (stereo not drawn) [CBK286594] was 85%.

Take `Cn1c(=O)[nH]c(=O)c2c1nc(CN1CCOCC1)n2CCc1ccccc1` [CBK269910]: the viability at 28.5 h, 10 µM worked out at 88%. Still for that read-out and setting: the value for `CC(C)(C)C(=O)NC(NC(=S)Nc1sc2c(c1C(N)=O)CCCC2)C(Cl)(Cl)Cl` (stereo not drawn) [CBK261052] was 94.7%. On the same count and under the same terms, under `Cc1ccc(S(=O)(=O)Nc2ccccc2CNc2ccc(Br)cc2)cc1` [CBK264214] stands 94.5%; under `Cc1ccc(Sc2ncccc2C(=O)Nc2ccnn2Cc2cccnc2)cc1C` [CBK296980], 109%; under `COc1ccc(CC(=O)N2CCC(c3cc4ccccc4cn3)C2)cc1` (stereo not drawn) [CBK283421], 105%. On the same count and under the same terms, the value for `COCC(=O)N1CCc2sccc2C1c1ccc(NCc2ccc(C)o2)cc1` (stereo not drawn) [CBK286447] was 96.3%; that for `O=C(Nc1cccc(Cl)c1)N1CCCC(c2nc(-c3ccccc3)c3ccccn23)C1` (stereo not drawn) [CBK047233] was 90.4%; that for `N#Cc1cccc(C(=O)N2CCCC3(CCN(C(=O)Cc4c[nH]c5ccccc45)C3)C2)c1` (stereo not drawn) [CBK131581] was 93.4%. Consider `CCN(CC(=O)NCc1ccc(F)cc1)S(=O)(=O)c1c(C)n[nH]c1C` [CBK306074], for which the viability at 28.5 h, 10 µM is 93.3%. The same measure, in the same setting: the value for `Cc1c(C(=O)N2CCCCC2CN2CCOCC2)[nH]c2c(F)cccc12` (stereo not drawn) [CBK306751] was 105%.

With `CC(=O)N1CCN(C[C@@H]2C=C(C)[C@H](Cc3nnc(C)o3)C[C@H]2C(C)C)CC1` [CBK289219], the viability at 28.5 h, 10 µM was determined as 114%. As for `CC1CCc2c(sc3ncnc(OCC(=O)N4CCNC4=O)c23)C1` (stereo not drawn) [CBK305775], the viability at 28.5 h, 10 µM is 96.1%. Same read-out and setting: the value for `CC(=O)Nc1cccc(C(=O)N(Cc2ccccc2)Cc2ccccc2)c1` [CBK269295] was 91.6%; that for `O=C(Nc1ccc(/C=C/c2ccccc2)cc1)c1ccc(COc2ccccc2)o1` [CBK267829] was 91.3%.

In the case of `O=C(c1sc2ccccc2c1Cl)n1cnc2ccccc21` [CBK262216], the viability at 28.5 h, 10 µM was found to be 101%.

On to `CC(C)c1ccc(-c2cncc(NCCCN3CCOCC3)n2)cc1` [CBK065196], for which the viability at 28.5 h, 10 µM is 97.7%. Still for that read-out and setting: the value for `O=C1CN(S(=O)(=O)CCOc2ccccc2)CC(=O)N1CCc1ccccc1` [CBK261134] was 92.8%. As to `O=C(CCC(=O)c1ccccc1)NC1CCc2ccccc21` (stereo not drawn) [CBK003351], the viability at 28.5 h, 10 µM came to 103%. Same read-out and setting: the value for `CCc1nc(C(C)NCC(=O)Nc2cc(C)nn2C)cs1` (stereo not drawn) [CBK305118] was 97.8%; that for `Cc1ccc(CNC(=O)CCC(=O)O)cc1` [CBK058951] was 120%.

For the compound `Cc1ccnc(SCc2c(Cl)cccc2[N+](=O)[O-])n1` [CBK269632], the viability at 28.5 h, 10 µM turned out to be 86%. The same measure, in the same setting: under `CCc1c(C)nc2ccccc2c1SCCOC(=O)Nc1ccccc1` [CBK155466T] stands 85.6%. On the same count and under the same terms, the value for `O=C(O)C1C(C(=O)O)C1C(=O)O` (stereo not drawn) [CBK230432] was 94.9%; that for `CC1=C[C@@H](CNC(=O)c2cccnc2)[C@H](C(C)C)C[C@H]1CC(=O)N1CCOCC1` [CBK289053] was 92.4%; that for `CC(C)CCC1(CN2CCCC2=O)C(=O)NC(=O)NC1=O` [CBK288372] was 90.5%. As to `N#Cc1ccc(NCC(=O)Nc2ncccc2O)cc1` [CBK306413], the viability at 28.5 h, 10 µM is 88.7%. In the case of `CCN(CCC(C)Sc1ccccc1)c1cncc(Oc2ccc(S(C)(=O)=O)cc2)n1` (stereo not drawn) [CBK137186T], the viability at 28.5 h, 10 µM came out at 96.5%. Consider `O=C(CSCc1c(Cl)cccc1Cl)Nc1cccc(-c2nnc(-c3ccccc3)o2)c1` [CBK267435], for which the viability at 28.5 h, 10 µM is 96.7%.

Take `CNC(=O)Nc1cc(C(O)(C(F)(F)F)C(F)(F)F)ccc1C` [CBK006970]: the viability at 28.5 h, 10 µM came out at 113%.

With `CCN1CCN(c2c(Cl)cccc2NC(=O)c2ccc(N3CCOCC3)c([N+](=O)[O-])c2)CC1` [CBK269066], the viability at 28.5 h, 10 µM stood at 98.8%.

In the case of `O=C(CSc1nnc(-c2ccncc2)n1-c1ccccc1)N/N=C/c1ccco1` [CBK262828], the viability at 28.5 h, 10 µM was determined as 94.4%.

Take `CC(=O)Nc1ccc(S(=O)(=O)Nc2ccnc(N3CCN4CCCC4C3)n2)cc1` (stereo not drawn) [CBK000380C]: the viability at 28.5 h, 10 µM was determined as 91.1%. As for `COCCn1cnnc1C(C)NC(=O)Cn1cc2ccccc2n1` (stereo not drawn) [CBK307047], the viability at 28.5 h, 10 µM was found to be 92.1%.

In the case of `COc1cccc(Nc2cc(-c3ccc(N4CCOCC4)cc3)ncn2)c1OC` [CBK037687], the viability at 28.5 h, 10 µM came out at 94.7%. As for `O=C(O)c1cccc(C(=O)Nc2cccc(NC(=O)C3CCCO3)c2)c1` (stereo not drawn) [CBK268566], the viability at 28.5 h, 10 µM stood at 108%. The same measure, in the same setting: the value for `CC1(O)CCN(Cc2nnnn2-c2ccc(S(C)(=O)=O)cc2)CC1` [CBK304166] was 99.2%; that for `NNC(=O)c1cc2ccccc2cc1NS(=O)(=O)c1ccccc1` [CBK263261] was 84.4%. On the same count and under the same terms, under `CCCNC(=O)c1cc(C2CCCN(Cc3ccc(F)cc3)C2)no1` (stereo not drawn) [CBK283387] stands 94%. On the same count and under the same terms, under `Nc1ccc(OCc2nc3ccccc3n2CC(=O)O)cc1` [CBK270099] stands 96%; under `OCCNc1ncnc2c1ncn2Cc1ccccc1` [CBK287933], 106%; under `CCn1cc(S(=O)(=O)NC2CCc3[nH]c4ccc(C)cc4c3C2)cn1` (stereo not drawn) [CBK304790], 99.7%. For the compound `CCCn1ccnc1SCC(=O)Nc1ccc(N(C)C)cc1` [CBK304996], the viability at 28.5 h, 10 µM came out at 112%. Still for that read-out and setting: under `Cc1ccc(NC(=O)CSc2cnn[nH]2)cc1` [CBK270136] stands 86.2%; under `Cc1cc(OCC(=O)O/N=C(\N)Cc2ccc([N+](=O)[O-])cc2)ccc1Cl` [CBK264322], 98.2%. On the same count and under the same terms, the value for `O=S(=O)(c1ccc(NC(=S)NCc2cccnc2)cc1)N1CCOCC1` [CBK268396] was 72.8%.

In the case of `CC(=O)c1ccc(CN2CCCN(S(=O)(=O)c3ccc(C(F)(F)F)cc3Cl)CC2)cc1` [CBK063106], the viability at 28.5 h, 10 µM was determined as 104%. Turning to `COCCN1CC[C@@H]2[C@@H](C/C=C/Cc3ccccc3OCC(=O)N2C)C1` [CBK292134], the viability at 28.5 h, 10 µM was determined as 98%. On the same count and under the same terms, under `COC(=O)NC(=S)Nc1ccc2c(c1)OCCO2` [CBK018644] stands 79%; under `COC(=O)c1cc(Cl)c(NC(=S)NC(=O)C(C)(C)C)cc1OC` [CBK020937], 94.1%. Still for that read-out and setting: the value for `Cc1ccc(C)c(C2C(C(=O)c3ccccc3Cl)=C(O)C(=O)N2c2ccc(CC(=O)O)cc2)c1` (stereo not drawn) [CBK297723] was 90.7%; that for `O=C(NCC1CCCN1)c1ccccc1Nc1cccc(C(F)(F)F)c1` (stereo not drawn) [CBK115916C] was 107%; that for `CCOC(=O)c1ccc(-n2c(CCC(=O)O)ccc2-c2cccs2)cc1O` [CBK266015] was 103%. Take `Cn1ccnc1Sc1cc(C(F)(F)F)ccn1` [CBK093798]: the viability at 28.5 h, 10 µM was found to be 80.5%. On the same count and under the same terms, the value for `COc1cncc(-c2cncc(NCCCN3CCOCC3)n2)c1` [CBK037902] was 84%; that for `O=C(CCCN1C(=O)c2cccc3cccc(c23)C1=O)N1CCN(C/C=C/c2ccccc2)CC1` [CBK263300C] was 103%; that for `CC(C)(C)OC(=O)NC(C)(C)C(=O)N1C[C@H](C(=O)N2CCC3(CC2)CN(S(C)(=O)=O)c2ccccc23)[C@@H](c2nc3ccccc3s2)C1` [CBK136737] was 91.5%. On the same count and under the same terms, the value for `CCN(CC)CCCNC(=O)N1CCN(CCN2CCOCC2)CC1` [CBK155837] was 90.9%; that for `COc1ccc2c(c1)Cc1sc(NC(C)=O)nc1-2` [CBK287876] was 93.8%. Same read-out and setting: under `CC12CCC(C(=O)O)(c3nc4cc([N+](=O)[O-])ccc4nc31)C2(C)C` (stereo not drawn) [CBK266577K] stands 95.6%. `Cc1cc(NC(=O)c2nn3c(C(F)(F)F)cc(-c4ccccc4)nc3c2Cl)nn1CC(=O)N1CCOCC1` [CBK268209]: the viability at 28.5 h, 10 µM is 105%. Same read-out and setting: the value for `CCOCC1CCN(C(=O)c2ncsc2Nc2cccnc2)C1` (stereo not drawn) [CBK304514] was 110%; that for `Cc1cnn(CC2CCCN2C(=O)CC2OCCc3ccsc32)c1` (stereo not drawn) [CBK305370] was 86.5%. As for `c1csc(-c2cncc(NCc3ccncc3)n2)c1` [CBK065583], the viability at 28.5 h, 10 µM worked out at 94.6%. The same measure, in the same setting: under `Cn1c(=O)c2c(ncn2CC(=O)NCCOc2ccccc2)n(C)c1=O` [CBK304654] stands 95.5%; under `Cc1ccc(SC(C)C(=O)O/N=C(\N)c2ccccn2)cc1` (stereo not drawn) [CBK268567], 111%; under `COc1cc(CNc2cc(-c3ccc(F)c(Cl)c3)nc3ccnn23)cc(OC)c1OC` [CBK037209], 107%. On the same count and under the same terms, under `Cc1ccc(-c2nnc(N3CCN(S(=O)(=O)c4ccc(Cl)cc4)CC3)c3ccccc23)cc1` [CBK266759] stands 96.1%; under `CCCCN(C)c1c(C)nc2c(Oc3nc4ccccc4s3)cccn12` [CBK147192], 93.4%; under `CN(C)C(CNCc1cn(C)nc1-c1cccnc1)c1ccccc1` (stereo not drawn) [CBK304511], 84.8%.

The same data set, now with this note: human, hela cells, % viability, bulk resorufin, single well.
On to `c1cc2c(cc1-c1ccc3c(c1)OCO3)COC1(CCNCC1)O2` [CBK060925], for which the viability at 28.5 h, 10 µM was found to be 95.9%.
